Drawing on ChEMBL document CHEMBL1129206, “Probing the specificity of the S1 binding site of M222 mutants of subtilisin B. lentus with boronic acid inhibitors” (Bioorg Med Chem Lett, 1996), this text covers Ki for 9 compounds.

Holding throughout (set-up): species or system Lederbergia lenta
For test [1], the target named is Subtilisin BL (Bacillus lentus, UniProt P29599, M222S).
Test [2] concerns the target Subtilisin BL (Bacillus lentus, UniProt P29599, M222C).
Test [3] addresses T1, Subtilisin BL (Bacillus lentus, UniProt P29599).
T1 sequence (P29599 whole entry): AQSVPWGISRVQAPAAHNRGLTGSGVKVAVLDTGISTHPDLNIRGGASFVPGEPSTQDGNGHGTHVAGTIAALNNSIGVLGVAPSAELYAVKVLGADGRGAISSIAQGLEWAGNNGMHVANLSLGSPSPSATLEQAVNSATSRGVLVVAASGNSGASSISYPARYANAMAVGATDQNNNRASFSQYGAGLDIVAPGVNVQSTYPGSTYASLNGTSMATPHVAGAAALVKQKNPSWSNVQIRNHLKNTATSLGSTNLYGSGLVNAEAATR
Put plainly: Competitive inhibition of Subtilisin BL wild type enzyme from Bacillus lentus.

Turning to `OB(O)c1cccc(-c2ccccc2)c1`, the values for the Ki on Subtilisin BL [1], at Subtilisin BL [2] and on Subtilisin BL [3] were 69 µM, 31 µM and 327 µM, respectively.

For the compound `OB(O)c1ccc(Cl)cc1Cl`, the inhibition constant Ki at Subtilisin BL [1] was 8 µM; on Subtilisin BL [2] it was 18 µM; on Subtilisin BL [3], 9.2 µM.

As for `Nc1cccc(B(O)O)c1`, the Ki is 73 µM on Subtilisin BL [1], 204 µM on Subtilisin BL [2] and 150 µM on Subtilisin BL [3].

For the compound `OB(O)c1ccc(Br)cc1`, the Ki is 10 µM at Subtilisin BL [1], 23 µM at Subtilisin BL [2] and 23 µM at Subtilisin BL [3].

With `COc1ccc(B(O)O)cc1`, the inhibition constant Ki is 310 µM on Subtilisin BL [1], 757 µM on Subtilisin BL [2] and 577 µM at Subtilisin BL [3].

As for `OB(O)CCc1ccc(Cl)cc1`, the Ki on Subtilisin BL [1] was 110 µM; on Subtilisin BL [2], 233 µM; on Subtilisin BL [3], 325 µM.

As for `OB(O)CCc1ccc2ccccc2c1`, the Ki on Subtilisin BL [1] is above 1000 µM; on Subtilisin BL [2] it was above 1000 µM; on Subtilisin BL [3] it was 1580 µM.

For the compound `COc1ccc(CCB(O)O)cc1`, the inhibitory constant (Ki) worked out at 219 µM on Subtilisin BL [1], 314 µM on Subtilisin BL [2] and 986 µM at Subtilisin BL [3].

`OB(O)c1ccccc1` [PHENYLBORONIC ACID]: the Ki at Subtilisin BL [1] was determined as 96 µM; on Subtilisin BL [2] it was 155 µM; at Subtilisin BL [3], 141 µM.
